Experiments:
[1] = scavenger concentrations as high as 2 M; cited from earlier work
[2] = Electron capture by AuNPs in water, muon spin resonance (μSR); settings: degassed 0.1 M aqueous surfactant reference solution, absence of AuNPs
Description: To deconstruct the complex electron-transfer reactions in water, we used a highly sensitive spectroscopic technique involving the positive muon (μ+) using the muon spin resonance (μSR) technique (18). The μSR technique is a type of spin spectroscopy that makes use of short-lived subatomic particles, muons (μ^+), which are sensitive magnetic and electronic probes of matter.
A degassed 0.1 M aqueous solution of the dissolved surfactant (bac-14) was used as a reference. […] These electrons therefore combine with positive muons or MuH2O^+ ions to form paramagnetic muonium, an ultra-light hydrogen atom (0.11H) that adds to the aromatic ring of the surfactant (FIG. 15).
The diamagnetic fraction shown in the transverse field spectra (FIG. 17) is enhanced when muons enter the AuNP solution, as compared with the reference solution containing a similar surfactant concentration and evaluated under the same experimental conditions (same sample geometry and magnetic field).
In aqueous solutions, the competition of Reactions 1-5 in the radiation track determines the muon fractions (19-21). […]
where [AuNP] is the AuNP concentration calculated to be 4.89×10^-7 M (see supplementary information) and the muon thermalization rate (10) is at least 1 ns−1.
The lower limit of the electron capture rate constant (ke) for the AuNPs, using Eq. 1, was determined to be 2×10^15 M^−1 s^−1. […]

| Compound | electron capture rate (reported for known scavengers) [1] [M⁻¹ s⁻¹] | trapping of solvated or pre-solvated electrons [2] |
| --- | --- | --- |
| C[S+](C)[O-] [DMSO] | 8.1e+11 | – |
| O=[N+]([O-])[O-].[K+] [KNOB] | 1.2e+13 | – |
| CCCCCCCCCCCCCC[N+](C)(C)Cc1ccccc1.[Cl-] [bac-14, Benzyldimethyltetradecylammonium chloride] | – | unable to effectively trap the solvated or pre-solvated electrons |
| CC(C)O [isopropanol] | 2.3e+11 | – |

Source: patent publication US20180200293A1, “STABILIZED GOLD NANOPARTICLES” (priority 2014, published 2018)
